Results from ChEMBL document CHEMBL3885881, “DrugMatrix”.

Species on record: Rattus norvegicus
Experiment: DrugMatrix - Regimen: Daily Repeat
Format: toxicity, organism-based, Sprague-Dawley
Parameters: regimen Daily Repeat, gender Male, age 6-8 weeks
Settings: in vivo, po, route oral GAVAGE; for ABSOLUTE MONOCYTE / ABSOLUTE SEGMENTED NEUTROPHIL / BASOPHIL / EOSINOPHIL / ERYTHROCYTE COUNT / HEMATOCRIT / HEMOGLOBIN / LEUKOCYTE COUNT / LYMPHOCYTE / MEAN CORPUSCULAR HEMOGLOBIN / MEAN CORPUSCULAR HEMOGLOBIN CONCENTRATION / MEAN CORPUSCULAR VOLUME / MONOCYTE / NEUTROPHIL / NUCLEATED RED BLOOD CELLS / PLATELET COUNT / ABSOLUTE BASOPHIL / ABSOLUTE EOSINOPHIL / ABSOLUTE LYMPHOCYTE: tissue Blood; for ALANINE AMINOTRANSFERASE / ALBUMIN / ALKALINE PHOSPHATASE / ASPARTATE AMINOTRANSFERASE / BLOOD UREA NITROGEN / CARBON DIOXIDE / CHLORIDE / CHOLESTEROL / CREATINE PHOSPHOKINASE / CREATININE / GLUCOSE / LACTATE DEHYDROGENASE / LIPASE / PHOSPHORUS / POTASSIUM / SODIUM / TOTAL BILIRUBIN / TOTAL PROTEIN / URIC ACID: tissue Plasma
[1] = 20 mg/kg, 120 h, dose level Low, time 5 day, […]
[2] = 54 mg/kg, 72 h, dose level M1, time 3 day, vehicle 100 % WATER
[3] = 54 mg/kg, 120 h, dose level M1, time 5 day, vehicle 100 % WATER

`Cn1cnc([N+](=O)[O-])c1Sc1ncnc2nc[nH]c12` [AZATHIOPRINE] was tested, and the “ABSOLUTE MONOCYTE” value [1] was 73.67 CELLS/uL, the “ABSOLUTE SEGMENTED NEUTROPHIL” value [1] was 134 CELLS/uL and the BASOPHIL [1] was 0%. The EOSINOPHIL [1] was 0%, the “ERYTHROCYTE COUNT” value [1] was 5 x10E6/uL and the HEMATOCRIT [1] was 31.27%. For the same molecule, the HEMOGLOBIN [1] was 12.3 G/DL, the “LEUKOCYTE COUNT” value [1] was 5.33 x10E3/uL and the LYMPHOCYTE [1] was 96%. For the same molecule, the “MEAN CORPUSCULAR HEMOGLOBIN” value [1] was 24.53 pg, the “MEAN CORPUSCULAR HEMOGLOBIN CONCENTRATION” value [1] was 39.33 G/DL and the “MEAN CORPUSCULAR VOLUME” value [1] was 62.43 fL. The MONOCYTE [1] was 1.33%, the NEUTROPHIL [1] was 2.67% and the “NUCLEATED RED BLOOD CELLS” value [1] was 0 /100WBC. The “PLATELET COUNT” value [1] was 1346.67 x10E3/uL, the “ALANINE AMINOTRANSFERASE” value [1] was 45.33 u/L and the ALBUMIN [1] was 4.33 G/DL. The “ALKALINE PHOSPHATASE” value [1] was 305 u/L, the “ASPARTATE AMINOTRANSFERASE” value [1] was 83 u/L and the “BLOOD UREA NITROGEN” value [1] was 14 mg/dL. The “CARBON DIOXIDE” value [1] was 29.33 mmol/L, the CHLORIDE [1] was 104.33 MEQ/L and the CHOLESTEROL [1] was 75 mg/dL. The “CREATINE PHOSPHOKINASE” value [1] was 212.33 u/L, the CREATININE [1] was 0.4 mg/dL and the GLUCOSE [1] was 152.67 mg/dL. The “LACTATE DEHYDROGENASE” value [1] was 68 u/L, the LIPASE [1] was 13 u/L and the PHOSPHORUS [1] was 10.93 mg/dL. The POTASSIUM [1] was 5.68 MEQ/L, the SODIUM [1] was 146.9 MEQ/L and the “TOTAL BILIRUBIN” value [1] was 0.1 mg/dL. For the same molecule, the “TOTAL PROTEIN” value [1] was 6.67 G/DL, the “URIC ACID” value [1] was 0.33 mg/dL and the “ABSOLUTE BASOPHIL” value [2] was 0 CELLS/uL. For the same molecule, the “ABSOLUTE EOSINOPHIL” value [2] was 0 CELLS/uL, the “ABSOLUTE LYMPHOCYTE” value [2] was 10600.67 CELLS/uL and the “ABSOLUTE MONOCYTE” value [2] was 39.33 CELLS/uL. The “ABSOLUTE SEGMENTED NEUTROPHIL” value [2] was 326.67 CELLS/uL, the BASOPHIL [2] was 0% and the EOSINOPHIL [2] was 0%. For the same molecule, the “ERYTHROCYTE COUNT” value [2] was 5.04 x10E6/uL, the HEMATOCRIT [2] was 31.57% and the HEMOGLOBIN [2] was 12.03 G/DL. For the same molecule, the “LEUKOCYTE COUNT” value [2] was 10.97 x10E3/uL, the LYMPHOCYTE [2] was 96.67% and the “MEAN CORPUSCULAR HEMOGLOBIN” value [2] was 23.9 pg. The “MEAN CORPUSCULAR HEMOGLOBIN CONCENTRATION” value [2] was 38.13 G/DL, the “MEAN CORPUSCULAR VOLUME” value [2] was 62.73 fL and the MONOCYTE [2] was 0.33%. For the same molecule, the NEUTROPHIL [2] was 3%, the “NUCLEATED RED BLOOD CELLS” value [2] was 0 /100WBC and the “PLATELET COUNT” value [2] was 1322.33 x10E3/uL. For the same molecule, the “ALANINE AMINOTRANSFERASE” value [2] was 39.67 u/L, the ALBUMIN [2] was 4.23 G/DL and the “ALKALINE PHOSPHATASE” value [2] was 313.33 u/L. The “ASPARTATE AMINOTRANSFERASE” value [2] was 66 u/L, the “BLOOD UREA NITROGEN” value [2] was 10.67 mg/dL and the “CARBON DIOXIDE” value [2] was 28.67 mmol/L. The CHLORIDE [2] was 100 MEQ/L, the CHOLESTEROL [2] was 81.67 mg/dL and the “CREATINE PHOSPHOKINASE” value [2] was 160.33 u/L. For the same molecule, the CREATININE [2] was 0.25 mg/dL, the GLUCOSE [2] was 157.33 mg/dL and the “LACTATE DEHYDROGENASE” value [2] was 114.33 u/L. The LIPASE [2] was 13 u/L, the PHOSPHORUS [2] was 10.63 mg/dL and the POTASSIUM [2] was 6.03 MEQ/L. For the same molecule, the SODIUM [2] was 141.9 MEQ/L, the “TOTAL BILIRUBIN” value [2] was 0.13 mg/dL and the “TOTAL PROTEIN” value [2] was 5.97 G/DL. For the same molecule, the “URIC ACID” value [2] was 1.17 mg/dL, the “ABSOLUTE BASOPHIL” value [3] was 0 CELLS/uL and the “ABSOLUTE EOSINOPHIL” value [3] was 0 CELLS/uL. For the same molecule, the “ABSOLUTE LYMPHOCYTE” value [3] was 4380.67 CELLS/uL, the “ABSOLUTE MONOCYTE” value [3] was 0 CELLS/uL and the “ABSOLUTE SEGMENTED NEUTROPHIL” value [3] was 119.33 CELLS/uL. For the same molecule, the BASOPHIL [3] was 0%, the EOSINOPHIL [3] was 0% and the “ERYTHROCYTE COUNT” value [3] was 4.85 x10E6/uL. For the same molecule, the HEMATOCRIT [3] was 31.6%, the HEMOGLOBIN [3] was 12.13 G/DL and the “LEUKOCYTE COUNT” value [3] was 4.5 x10E3/uL. For the same molecule, the LYMPHOCYTE [3] was 97.33%, the “MEAN CORPUSCULAR HEMOGLOBIN” value [3] was 25 pg and the “MEAN CORPUSCULAR HEMOGLOBIN CONCENTRATION” value [3] was 38.37 G/DL. For the same molecule, the “MEAN CORPUSCULAR VOLUME” value [3] was 65.07 fL, the MONOCYTE [3] was 0% and the NEUTROPHIL [3] was 2.67%. The “NUCLEATED RED BLOOD CELLS” value [3] was 0 /100WBC, the “PLATELET COUNT” value [3] was 1116.33 x10E3/uL and the “ALANINE AMINOTRANSFERASE” value [3] was 29.67 u/L.
